{"source": "patent US8106003B2", "about": "“Peptides and methods for the treatment of inflammatory disease” (Auckland Uniservices Limited, priority 2004, dated 2012)", "system": "β2 integrin (αLβ2)-mediated adhesion of H9 cells to ICAM-1", "test": "Cell adhesion assay: H9 cells to ICAM-1-Fc (integrin specificity)", "assay_type": "cell-based, human", "conditions": "Mn++-activated H9 cells", "description": "Cell adhesion assays. Lab-Tek 16-well glass slides (Nunc) or flat-bottomed 96-well maxisorb plates (Nunc) were coated with purified mouse MAdCAM-1-Fc, human VCAM-1-Fc, and human ICAM-1-Fc (70 to 100 μl of 5 to 10 μg/ml), and incubated at 4° C. overnight. Slides were washed once with PBS, and blocked with FCS for 2 h at room temperature. Slides were washed with Hanks balanced salt solution (HBSS) containing 10 mM Hepes. Cells were either left unlabeled or labeled with the fluorescent dye chloromethyl fluorescein diacetate (CMFDA; Molecular Probes, Oregon), and activated by resuspension in HBSS containing 10 mM Hepes supplemented with 2 mM Ca^++ and 2 mM Mn^++. Cells were alternatively activated with 50 ng/ml PMA, or by incubating with AlF4^− (10 mM NaF and 40 µM AlCl3). They were preincubated with peptides at different concentrations for 10 min at room temperature, checked for viability by trypan blue exclusion, and then 10^6 cells added to each coated well and left to adhere for 30 min at room temperature. […] The number of adherent cells was determined by counting the number of adherent cells in four independent fields at 100× magnification under an inverted microscope. […] The fluorescence of CMFDA-labeled adherent cells was measured using a VICTOR 1420 multilabel counter (Wallac). […]"}
{"substance": "YDDREY: cell permeable YDRREY (SEQ ID NO. 1) peptide, carrier not stated at this place", "values": [{"measurement": "inhibition of H9 cell binding to ICAM-1", "value": "neither the cell permeable YDDREY (SEQ ID NO. 1) peptide nor the β3 CARD were able to block"}]}
